According to article PMC12190436, “5-Ene-2-arylaminothiazol-4(5H)-ones Induce Apoptosis in Breast Cancer Cells” (Cells, 2025):
Counter-ions that a name gives are not always drawn.

Legend:
[1] = tested on: MCF-7 cells; test: ROS generation, H2DCFDA/DAPI double staining; type: cell-based, human
Method: MCF-7 cells were seeded in 6-well plates at 1 × 10^5 cells per well in 2 mL medium. Afterwards, cells were treated with the mentioned compounds for 1 and 3 h, respectively. Next, cells were washed, and 20 µM of H2DCFDA was added for 30 min. After that, 10 µg/mL of DAPI was added to observe the nuclear DNA of cells. The results were obtained with the use of a Nikon ECLIPSE Ti fluorescence microscope (Nikon, Tokyo, Japan), followed by further assessment via ImageJ software version 1.54k (Bethesda, MD, USA).
H2DCFDA (green fluorescence) was utilized to mark oxidative stress, and DAPI (blue fluorescence) to stain nuclear genetic material.

[2] = tested on: cytochrome C; test: cytochrome C concentration, SimpleStep ELISA; type: cell-based, human; conditions: 5 µM, 24 h, MCF-7
Method: (§1) To determine the effects of the new 4-thiazolidinone derivatives and the reference drug on the concentration of p53 and cytochrome C in MCF-7 cell lysates or supernatants after 24 h of treatment, highly sensitive SimpleStep ELISA (enzyme-linked immunosorbent assay) kits (Abcam, Cambridge, UK) were applied. The cells were collected and washed thrice with cold PBS and centrifuged at 1000× g for 5 min at 4 °C. Next, the cells were suspended in lysis buffer to acquire cell lysates. Concurrently, the supernatants, acquired after centrifugation, were frozen immediately at −80 °C. The standards, samples, and antibody cocktail were added to the appropriate microtiter plate wells, followed by 1 h incubation at room temperature. The content of microplate wells was extracted, and the wells were washed thrice. Afterwards, a TMB development solution was added to each well. The enzyme–substrate reaction was terminated with a stop solution. The change in color was assessed by UV-VIS Helios Gamma (Unicam/ThermoFisher Scientific Inc., Cleveland, OH, USA) at 450 ± 2 nm wavelength.
(§2) Both p53 and cytochrome C proteins play pivotal roles in the process of apoptosis. For this reason, concentrations of the mentioned proteins were measured in MCF-7 cells after 24 h treatment with the tested compounds (Les-6416, Les-6418, Les-6381, Les-6423, Les-6424) in concentrations of 5 µM.

[3] = tested on: p53; test: p53 concentration, SimpleStep ELISA; type: cell-based, human; conditions: 5 µM, 24 h, MCF-7
Method: as §1, §2

[4] = tested on: UACC-257; type: cell-based
[5] = tested on: SNB-19; type: cell-based
[6] = tested on: MALME -3M; type: cell-based
[7] = tested on: EKVX; type: cell-based
[8] = tested on: UO-31; type: cell-based
[9] = tested on: HOP-92; type: cell-based
[10] = tested on: MDA-MB-231/ATCC; type: cell-based
[11] = tested on: Breast Cancer; type: cell-based
[12] = tested on: HS 578T; type: cell-based
[13] = tested on: SF-268; type: cell-based
[14] = tested on: OVCAR-4; type: cell-based
[15] = tested on: SW-620; type: cell-based
[16] = tested on: Renal Cancer; type: cell-based
[17] = tested on: HCC -2998; type: cell-based
[18] = tested on: SN12C; type: cell-based
[19] = tested on: Ovarian Cancer; type: cell-based
[20] = tested on: SK-OV-3; type: cell-based
[21] = tested on: HCT-116; type: cell-based
[22] = Homo sapiens, 48 h, read-out: LC50 (the source's name)

SMILES: COc1cccc2c1C(=O)c1c(O)c3c(c(O)c1C2=O)C[C@@](O)(C(=O)CO)C[C@@H]3O[C@H]1C[C@H](N)[C@H](O)[C@H](C)O1 [DOX, Doxorubicin hydrochloride, reference compound]
- ROS generation versus control ([1]; 0.5 µM, 3 h): approximately two times more than the untreated control

SMILES: COc1cc(NC2=NC(=O)C(=Cc3ccc4cc[nH]c4c3)S2)cc(OC)c1OC [Les-6416, 5-((1H-Indol-6-yl)methylene)-2-((3,4,5-trimethoxyphenyl)amino)thiazol-4(5H)-one]
- ROS generation versus control ([1]; 2.5 µM, 3 h): approximately two times more than the untreated control
- ROS generation versus control ([1]; 5 µM, 1 h): two times more than the control
- ROS generation versus control ([1]; 5 µM, 3 h): approximately a threefold increase
- Concentration of cytochrome c [2]: 4.56 ± 0.85 ng/mL
- Concentration of p53 [3]: 2.27 ± 0.55 ng/mL

SMILES: COc1cc(NC2=NC(=O)C(=Cc3c[nH]c4ccccc34)S2)cc(OC)c1OC [Les-6418, 5-((1H-Indol-3-yl)methylene)-2-((3,4,5-trimethoxyphenyl)amino)thiazol-4(5H)-one]
- GI50 ([4]; Homo sapiens, UACC-257, 48 h): 5.18 µM
- CC50 ([4]; Homo sapiens, UACC-257, 48 h, read-out: LC50 (the source's name)): 52.7 µM
- TGI ([4]; UACC-257, 48 h): 21.1 µM
- SI (TGI) ([4]; UACC-257, MG_MID_60/value): 0.88
- GI50 ([5]; Homo sapiens, SNB-19, 48 h): 6.6 µM
- CC50 ([5]; Homo sapiens, SNB-19, 48 h, read-out: LC50 (the source's name)): 52.2 µM
- TGI ([5]; SNB-19, 48 h): 21.2 µM
- SI (TGI) ([5]; SNB-19, MG_MID_60/value): 0.88
- TGI ([6]; 48 h): 15.2 µM
- GI50 ([6]; Homo sapiens, 48 h): 2.01 µM
- CC50 [6, 22]: 43.9 µM
- SI (TGI) ([6]; MG_MID_60/value): 1.22
- TGI ([7]; 48 h): 22.2 µM
- GI50 ([7]; Homo sapiens, 48 h): 8.02 µM
- LC50 ([7]; Homo sapiens, 48 h): 53.2 µM
- SI (TGI) ([7]; MG_MID_60/value): 0.84
- GI50 ([8]; Homo sapiens, UO-31, 48 h): 3.43 µM
- CC50 ([8]; Homo sapiens, UO-31, 48 h, read-out: LC50 (the source's name)): 38.8 µM
- TGI ([8]; UO-31, 48 h): 13.7 µM
- SI (TGI) ([8]; UO-31, MG_MID_60/value): 1.36
- Growth % ([9]; HOP-92, 10 μM, one dose, 48 h): −72.26%
- TGI ([9]; HOP-92, 48 h): 6.38 µM
- SI (TGI) ([9]; HOP-92, MG_MID_60/value): 2.92
- GI50 ([9]; Homo sapiens, HOP-92, 48 h): 1.98 µM
- CC50 ([9]; Homo sapiens, HOP-92, 48 h, read-out: LC50 (the source's name)): 42 µM
- TGI ([10]; 48 h): 18.8 µM
- GI50 ([10]; Homo sapiens, 48 h): 4.77 µM
- CC50 [10, 22]: 55.2 µM
- SI (TGI) ([10]; MG_MID_60/value): 0.99
- MG_MID TGI ([11]; Breast Cancer subpanel mean): 13.2 µM
- SI (MG_MID TGI) ([11]; Breast Cancer subpanel, MG_MID_60/value): 1.41
- GI50 ([11]; Homo sapiens, Breast Cancer subpanel mean, read-out: MG_MID GI50): 2.32 µM
- CC50 ([11]; Homo sapiens, Breast Cancer subpanel mean, read-out: MG_MID LC50): 55.8 µM
- TGI ([12]; 48 h): 11.9 µM
- GI50 ([12]; Homo sapiens, 48 h): 2.33 µM
- CC50 [12, 22]: > 100 µM
- SI (TGI) ([12]; MG_MID_60/value): 1.56
- GI50 ([13]; Homo sapiens, SF-268, 48 h): 3.56 µM
- CC50 ([13]; Homo sapiens, SF-268, 48 h, read-out: LC50 (the source's name)): 81.3 µM
- TGI ([13]; SF-268, 48 h): 20.0 µM
- SI (TGI) ([13]; SF-268, MG_MID_60/value): 0.93
- GI50 ([14]; Homo sapiens, OVCAR-4, 48 h): 2.88 µM
- CC50 ([14]; Homo sapiens, OVCAR-4, 48 h, read-out: LC50 (the source's name)): 35.3 µM
- TGI ([14]; OVCAR-4, 48 h): 10.6 µM
- SI (TGI) ([14]; OVCAR-4, MG_MID_60/value): 1.75
- GI50 ([15]; Homo sapiens, SW-620, 48 h): 3.1 µM
- CC50 ([15]; Homo sapiens, SW-620, 48 h, read-out: LC50 (the source's name)): 85 µM
- TGI ([15]; SW-620, 48 h): 21.8 µM
- SI (TGI) ([15]; SW-620, MG_MID_60/value): 0.85
- GI50 ([16]; Homo sapiens, Renal Cancer subpanel mean, read-out: MG_MID GI50): 4.22 µM
- CC50 ([16]; Homo sapiens, Renal Cancer subpanel mean, read-out: MG_MID LC50): 44.6 µM
- MG_MID TGI ([16]; Renal Cancer subpanel mean): 14.5 µM
- SI (MG_MID TGI) ([16]; Renal Cancer subpanel, MG_MID_60/value): 1.28
- TGI ([17]; HCC -2998, 48 h): 20.7 µM
- SI (TGI) ([17]; HCC -2998, MG_MID_60/value): 0.90
- GI50 ([17]; Homo sapiens, HCC -2998, 48 h): 6.36 µM
- CC50 ([17]; Homo sapiens, HCC -2998, 48 h, read-out: LC50 (the source's name)): 47.8 µM
- Growth % ([18]; 10 μM, one dose, 48 h): −88.00%
- TGI ([18]; 48 h): 15.1 µM
- GI50 ([18]; Homo sapiens, 48 h): 3.85 µM
- CC50 [18, 22]: 43.6 µM
- SI (TGI) ([18]; MG_MID_60/value): 1.23
- GI50 ([19]; Homo sapiens, Ovarian Cancer subpanel mean, read-out: MG_MID GI50): 4.61 µM
- CC50 ([19]; Homo sapiens, Ovarian Cancer subpanel mean, read-out: MG_MID LC50): 50.5 µM
- MG_MID TGI ([19]; Ovarian Cancer subpanel mean): 16.7 µM
- SI (MG_MID TGI) ([19]; Ovarian Cancer subpanel, MG_MID_60/value): 1.11
- GI50 ([20]; Homo sapiens, SK-OV-3, 48 h): 2.56 µM
- CC50 ([20]; Homo sapiens, SK-OV-3, 48 h, read-out: LC50 (the source's name)): 38.5 µM
- TGI ([20]; SK-OV-3, 48 h): 10.3 µM
- SI (TGI) ([20]; SK-OV-3, MG_MID_60/value): 1.81
- TGI ([21]; HCT-116, 48 h): 10.2 µM
- SI (TGI) ([21]; HCT-116, MG_MID_60/value): 1.82
- GI50 ([21]; Homo sapiens, HCT-116, 48 h): 1.1 µM
- CC50 ([21]; Homo sapiens, HCT-116, 48 h, read-out: LC50 (the source's name)): 50.6 µM
